# Patent US11135143B2, “Oral care compositions comprising tin ions” (The Procter & Gamble Company, priority 2020, dated 2021)
# Tests used:
# [1] = system: Human gingival epithelial (HGE) cell; test: Barrier protection analysis by real time cell analyzer (RTCA), impedance / Cell Index; type: cell-based; conditions: HGE cells
# Method: Cell Culture Human gingival epithelial (HGE) cell was maintained in a 37° C. incubator with 5% CO2 saturation. Dulbecco's modified Eagle's medium (DMEM, Gibco) containing 10% fetal calf serum, 1% penicillin-streptomycin was used as the complete culture medium, which was changed every 2-3 days. Barrier Protection Analysis by Real Time Cell Analyzer (RTCA) The real time cell analyzer (RTCA) xCELLigence RTCA DP (ACEA Bioscience Inc., San Diego, Calif.) equipment, based on impedance measurement, was used to monitor the barrier protection of polyols. 50 μl complete culture medium was added to E-plates to obtain background readings, followed by the addition of 100 μl of the cell suspension. The E-plates containing 28000 cell/well were incubated at 37° C., 5% CO2 for 22-24 h until cells were confluent. The culture medium was changed to DMEM or DMEM with 1% of polyols, non reducing sugars or combinations and incubated at 37° C., 5% CO2 for 2 h. The barrier disruptor (capsaicin to a final concentration of 75 μM in this case) was added to wells of E-plate. Impedance as reflected by the Cell Index (CI) was recorded continuously for 16-24 h. The CI curve was normalized at the time point just before adding polyols. The normalized CI at 3 h after adding of barrier disruptor was compared to blank control to generate the percentage of barrier function % comprimisation.
# [2] = Solubility of tin ions (SnF2) in polyol solutions at various pH; type: physicochemical; conditions: for Appearance of polyol solution with SnF2 (cloudy = formation of Sn(OH)2): pH 8-10, pH raised with NaOH; for Appearance of polyol solution with stannous fluoride: every point above pH of 4
# Method: Solubility of Tin Ions at a pH of Greater than 7
# A 30% (w/w) solution was prepared for each polyol or combination of polyols was prepared using the appropriate amount of the pure polyol and deionized water. Next, 46 g of the 30% (w/w) polyol solution was placed in a 250 mL glass beaker with a stirring bar on top of a magnetic stirring apparatus. 21 g of deionized water was added to the glass beaker and the magnetic stirring apparatus was started to commence stirring of the solution. A pH electrode was connected to a pH meter (VWR Scientific, Model 9100, Radnor, Pa.) and the pH electrode (ThermoFisher Scientific, Orion 8165BNWP, Waltham, Mass.) was placed in the stirring polyol solution.
# 0.45 grams of a tin ion source, such as stannous fluoride, was added to the stirring polyol solution. The pH was recorded once the tin ion source was completely added. The pH of the solution was increased by dropwise addition of a 33% (w/w) solution of NaOH.
# Solubility of Tin Ions at a pH of Less than 7
# 0.45 grams of a tin ion source, such as stannous fluoride, was added to the stirring polyol solution. The pH was recorded once the tin ion source was completely added. The pH of the solution was decreased by dropwise addition of a 33% (w/w) solution of HCl.
# A solution that appeared cloudy indicated the formation of insoluble tin complexes. At a pH of greater than 7, a cloudy solution indicated the formation of Sn(OH)2. FIG. 1-6 illustrate TABLE 1 by showing the appearance of each solution described in TABLE 1.
# [3] = DMEM with 1% polyol(s) for 2 h, then capsaicin 75 μM, normalized CI at 3 h after barrier disruptor compared to blank control (100%)
# [4] = pH 2-4, 30% (w/w) polyol solution diluted with water, 0.45 g stannous fluoride, pH lowered with HCl
"Appearance of polyol solution with SnF2 (cloudy = formation of insoluble tin complexes) [2, 4]",Appearance of polyol solution with SnF2 (cloudy = formation of insoluble tin complexes) ([2]; pH 4-6),Appearance of polyol solution with SnF2 (cloudy = formation of insoluble tin complexes) ([2]; pH 6-8),Appearance of polyol solution with SnF2 (cloudy = formation of Sn(OH)2) [2],Appearance of polyol solution with stannous fluoride [2],Compound,"Barrier Function ([1]; barrier disruptor capsaicin 75 μM alone, no polyol, normalized CI at 3 h compared to blank control (100%)) [%]","Barrier Function ([1]; barrier disruptor capsaicin 75 μM alone, no polyol, normalized CI at 3 h compared to blank control (100%), listed as capsaicin) [%]","Barrier Function [1, 3] [%]","Barrier Function ([1]; DMEM with 1% polyol(s) for 2 h, then capsaicin 75 μM, normalized CI at 3 h after barrier disruptor compared to blank control (100%), listed as glycerin) [%]","Barrier Function ([1]; DMEM with 1% polyol(s) for 2 h, then capsaicin 75 μM, normalized CI at 3 h after barrier disruptor compared to blank control (100%), listed as sorbitol) [%]"
,,,,,"COc1cc(CNC(=O)CCCC/C=C/C(C)C)ccc1O [Capsaicin, capsaicin, reference compound]",28,28,,,
,,,,,"OCC(O)CO [Glycerin, reference compound]",,,44,44,
clear,cloudy,cloudy,clear,,OC[C@@H](O)[C@@H](O)[C@H](O)[C@@H](O)CO [Sorbitol],,,46,,46
clear,cloudy,cloudy,cloudy,cloudy,OC[C@H]1O[C@H](O[C@H]2O[C@H](CO)[C@@H](O)[C@H](O)[C@H]2O)[C@H](O)[C@@H](O)[C@@H]1O [Trehalose],,,102,,
clear,cloudy,cloudy,cloudy,cloudy,Isomalt,,,85,,
